Where two headings read alike, the source gives them in different places.
Legend:
[1] = system: female mice; settings: cited from earlier work
[2] = system: male Wistar rats; assay: Ex-vivo organ distribution of [^177Lu-DOTA^o-Tyr3]-octreotide after pre-/co-injection of NaCl, Arg-Lys or PAH; type: in vivo; settings: 5 min and 60 min p.i., N=5, with respect to NaCl infusions
Method: All animals were pre-injected 10 min before the radiotracer injection with 1.0 mL of NaCl, Arg-Lys or PAH.
The animals were injected and sacrificed after 5 min or 60 min. Organs and tissue of interest were harvested and measured for activity. […] The average injected activity was 4.49±0.38 MBq/kg body weight (5 min) and 159±13 MBq/kg body weight (5 min) for the SPECT and 4.19±0.57 MBq/kg body weight (60 min) or 139±8 MBq/kg body weight for the SPECT animals (60 min).
(§1) For statistical analysis Microsoft Excel 2010 and Graphpad Prism 6.05 were employed. Data are presented as median and [25% and 75% percentile] and mean and standard deviation (SD) or standard error of mean (SEM). For comparison, ordinary one way ANOVA and Tukey's multiple comparisons test, two-sample two-tailed t-test were employed. Significance was accepted with P<0.05.
The results are graphically illustrated in FIG. 5.

[3] = system: healthy Wistar rats; assay: PET/CT kidney and blood radioactivity of ^68Ga-labeled HBED-CC-PSMA-11 with co-injection of PAH or saline; type: in vivo; settings: PAH 200 mg/mL vs 0.9% NaCl; 0.1, 0.5, 1, 2, 4 h; FIG. 8
Method: (§2) The tracer distribution of the radiolabeled test compounds were performed in two distinct cohorts of healthy Wistar rats with focus on the kidney uptake/clearance and blood levels. […] Each cohort comprises at least 3 rats for statistic matters.
Mice were injected with diagnostic ^68Ga-labeled PSMA-11 conjugated with acyclic chelator HBED-CC, and co-injected with PAH (200 mg/mL) or saline (0.9% NaCl) as a control. The percentage of injected radioactivity present in kidney (upper lane) and blood (lower lane) over time was determined according to the above protocol. The results are graphically illustrated in FIG. 8.

[4] = low plasma concentrations (1.0 to 2.0 mg/100 mL); average; cited from earlier work
[5] = system: AR42J tumor mouse model; assay: Comparative biodistribution of ^177Lu-DOTATOC i.v. after i.p. PAH or saline; type: in vivo, CD1 nude mice; settings: FIG. 9
Method: Mice (3 animals per group) were sacrificed at 0.5 h, 1 h, 2 h, and 4 h, respectively. The organs were quickly rinsed in 0.9% NaCl and dried before being weighed and counted to eliminate possible contaminating blood. […] Data from organ/tissue counting are expressed as percentage of injected dose (% ID/g)).

[6] = system: healthy Wistar rats; assay: SPECT/CT kidney and blood (heart) radioactivity of ^177Lu-labeled DOTA compounds with co-injection of PAH or saline; type: in vivo; settings: ^177Lu-DOTA-Affilin
Method: as §2
Testing parameters were provided for each compound, RCP >95%.
The percentage of injected radioactivity present in the kidneys over time was determined according to the above protocol. The results are graphically illustrated in FIG. 6.
The percentage of injected radioactivity present in blood over time was determined according to the above protocol. The results are graphically illustrated in FIG. 7.

[7] = system: healthy Wistar rats; assay: Kidneys uptake of [^177Lu-DOTA^o-Tyr3]-octreotide by quantitative small animal SPECT with co-infusion of kidney protection agent; type: in vivo; settings: vs 0.9% NaCl co-infusion
Method: Imaging acquisition was performed after 0.5 h, 1 h, 4 h, 8 h, 24 h p.i.
as §1

[8] = system: Laboratory Rat (Rattus norwegicus), Lewis; assay: SPECT biodistribution of ^177Lu-PSMA I&T with kidney protection agents (PAH, Probenecid, saline); type: in vivo; settings: for radioactivity in kidney cells (^177Lu-PSMA I&T): compared to the saline control (PAH also compared to probenecid), FIGS. 11 to 14
Excerpt: The protocol was executed in a way to test the radioactivity concentration of the kidneys in groups of animals injected with one TA but three different KP agents in three separate groups. Thus, the following matrix of experimental groups was formed.

[9] = system: rats; settings: Natochin et al. 1989; cited from earlier work
[10] = system: mice; assay: Comparative biodistribution of ^99mTc-Etarfolatide given with PAH or saline; type: in vivo; settings: PAH IP 10 min prior + tracer diluted in PAH vs saline; after 30 min; FIG. 10
Method: 30 mice (male and female) were randomly assigned to two groups.
Group A: The mice were injected with ^99mTc Etarfolatide diluted in PAH (2.04 μg Etarfolatide/mouse) after having received an IP injection of PAH 10 min prior to radiotracer injection. Five time-points were assessed: 5 min, 30 min, 1 h, 2 h, 4 h (3 mice per time-point).
Group B: The mice were injected with ^99mTc Etarfolatide diluted in saline (2.04 μg Etarfolatide/mouse) after having received an IP injection of saline 10 min prior to radiotracer injection. Five time-points were assessed: 5 min, 30 min, 1 h, 2 h, 4 h (3 mice per time-point).

[11] = Radiolabel stability of ^99mTc-Etarfolatide (HPLC, ITLC-SG); type: physicochemical; settings: 24 h post-preparation
Method: Radiolabeling efficiency and stability was determined using: (i) Instant thin layer chromatography-silica gel (ITLC-SG) with water (Rf of ^99mTc-Etarfolatide and free pertechnetate=0.9-1.0; Rf of colloid=0.0-0.1) and acetone (Rf of free pertechnetate=0.9-1.0; Rf of colloid and ^99mTc-Etarfolatide=0.0-0.1) as the mobile phases and (ii) RP-HPLC: Solvent A: 0.1% TFA in H2O. Solvent B: 0.1% TFA in AcCN; Gradient Elution, flow rate 1 mL/min.
On each day of experimentation, a new radiolabeling procedure was performed with approximately the same ^99mTc activity.
The volume of the radiolabeled folate was measured to be 1300 μL, while the activity was 734 MBq (Day of experimentation: March 4th). A sample corresponding to 300 MBq (i.e. 15 MBq×20 mice) was prepared. 531 μL were taken from the radiolabeled folate, which was diluted with either 1469 μL Saline or 1469 μL PAH (2000 μL 99mTc-etarfolatide, 100 μL/15 MBq per mouse). Before injection, the sample was filtered through a […] sterile filter. The injected 15 MBq/mouse corresponds to 2.04 μg Etarfolatide/mouse (injected quantity of Etarfolatide was kept stable throughout the experiment).

[12] = system: patients; settings: cited from earlier work
[13] = group B (PAH) compared to group A (NaCl)
[14] = at all time points (0.5-4 h), vs saline

In the case of `Nc1ccc(C(=O)NCC(=O)O)cc1` [PAH, para-aminohippuric acid], the “intravenous LD 50” value [1] is given as 7220 mg/kg, the “ex-vivo uptake of [^177Lu-DOTA^o-Tyr3]-octreotide in the kidneys” value [2] is given as “significantly reduced the uptake in the kidneys” and the “kidney uptake of ^68Ga-labeled HBED-CC conjugated PSMA-11” value [3] is given as “significant reduction of kidney uptake”. The “PAH cleared by the kidneys from the renal blood stream by a single circulation” value [4] was 90%, the “^177Lu-DOTATOC uptake in kidneys” value ([5]; group B (PAH 20% i.p. 50 μL + ^177Lu-DOTATOC/PAH) vs group A (NaCl 0.9%), 0.5-4 h) was “significant decrease” and the “^177Lu-DOTATOC level in blood” value [5, 13] was “significantly increased”. The “^177Lu-DOTATOC level in tumor” value [5, 13] was “significantly increased”, the “kidney uptake of Affilin” value ([6]; PAH 200 mg/mL vs 0.9% NaCl, versus the other compounds tested) was “less prominently reduced” and the “blood activity of Affilin (percentage of injected radioactivity in blood)” value ([6]; co-injected PAH 200 mg/mL vs 0.9% NaCl, FIG. 7) was “significant increase of blood activity”. For the same compound, the “kidney uptake of radiolabeled compounds (percentage of injected radioactivity in kidneys)” value ([6]; ^177Lu-DOTA-RGD, ^177Lu-DOTA-Sargastrin, ^177Lu-DOTA-JR11, PAH 200 mg/mL vs 0.9% NaCl, 0.5, 1, 4, 24 h, FIG. 6) was “significant effect in reduction of kidney uptake”, the “kidney uptake reduction of [^177Lu-DOTA^o-Tyr3]-octreotide” value ([7]; 0.5 h post injection) was 50% and the “kidney uptake reduction of [^177Lu-DOTA^o-Tyr3]-octreotide” value ([7]; after 8 h) was 56%. For the same compound, the “kidney uptake reduction of [^177Lu-DOTA^o-Tyr3]-octreotide” value ([7]; after 24 h) was 50%, the “renal cortex radioactivity (^177Lu-PSMA I&T)” value [8, 14] was “reduced radioactivity” and the “renal medulla radioactivity (^177Lu-PSMA I&T)” value [8, 14] was “reduced radioactivity”. For the same compound, the “radioactivity in kidney cells (^177Lu-PSMA I&T)” value [8] was “marked reduction of radioactivity”, the “effect on cisplatin's nephrotoxic effects” value (“effect” for short) [9] was “reduce cisplatin's nephrotoxic effects” and the “renal uptake of ^99mTc-Etarfolatide” value [10] was “decreased renal uptake”.
In the case of `C[N+](C)(C)CCO.[Cl-]` [Choline chloride], the “effect” value [9] is given as “reduce cisplatin's nephrotoxic effects”.
For `CCCN(CCC)S(=O)(=O)c1ccc(C(=O)O)cc1` [Probenecid], the “radioactivity in kidney cells (^177Lu-PSMA I&T)” value [8] was “no effect”.
In the case of `NS(=O)(=O)c1cc(C(=O)O)c(NCc2ccco2)cc1Cl` [fursosemide], the “effect” value [9] is given as “reduce cisplatin's nephrotoxic effects”.
In the case of `C=C(CC)C(=O)c1ccc(OCC(=O)O)c(Cl)c1Cl` [ethacrynic acid], the “effect” value [9] is given as “reduce cisplatin's nephrotoxic effects”.
With `Nc1nc2ncc(CNc3ccc(C(=O)N[C@H](CCC(=O)NC[C@@H]4[NH][99Tc]56(=[O])[S]C[C@@H](C(=O)O)[N]5C(=O)[C@H](CC(=O)O)[N]6C4=O)C(=O)O)cc3)nc2c(=O)[nH]1` [^99mTc-Etarfolatide] the “Stability of radiolabel by HPLC” value [11] was “no loss of radiolabel”.
In the case of `NCCCC[C@H](N)C(=O)O` [lysine], the “Kidney uptake reduction of radiolabeled octreotide” value ([12]; 25 g of lysine, P<0.04) is given as 17%+/−9%, the “Kidney uptake reduction of radiolabeled octreotide” value ([12]; 50 g of lysine, P<0.04) is given as 15%+/−13% and the serum potassium levels ([12]; 75 g of lysine (Lys75) or 25 g lysine plus 25 g arginine (LysArg)) is given as “rose significantly”. For the same compound, the “Kidney uptake reduction of radiolabeled octreotide” value ([12]; 75 g of lysine, P<0.001) was 44%+/−11%.

— US20220304964A1, “PARA-AMINOHIPPURIC ACID (PAH) AS A RENAL PROTECTIVE SUBSTANCE” (ITM Isotope Technologies Munich SE, priority 2019, published 2022)
